# Source: US7659308B2, “Concentricolide and its derivatives, process for preparing them, pharmaceutical composition comprising the same and its use” (Kunming Institute of Botany, The Chinese Academy of Sciences, priority 2003, dated 2010)
# What was measured:
# Assay type in all cases: cell-based
# C8166 cells = assay: Cytotoxicity on C8166 cells (MTT colorimetric assay); details: 72 h
# Method: (§1) C8166 was one of the host cells for HIV-1. 100 μl of 4×10^5/ml cells were seeded on microtiter plate, 100 μl of various concentrations of concentricolide were added and incubated at 37° C. in a humidified atmosphere of 5% CO2 for 72 h. The cellular toxicity was assessed by MTT calorimetric assay. The plates were read on Bio-Tek ELx 800 ELISA reader at 595/630 nm (OD595/630 nm). 50% cytotoxic concentration (CC50) was calculated as follows: Cell viability %=(ODexp−ODblank)/(ODcontrol−ODblank)×100.
# HIV-1IIIB = assay: Cytopathic effect (CPE) inhibition assay on HIV-1 infected C8166 cells
# Method: To 100 μl of a culture medium containing corresponding concentration of concentricolide A from example 1 were added C8166 cells (4×10^5/ml) and HIV-1IIIB at a multiplicity of infection (M.O.I) of 0.06. The final volume was 200 μl. AZT was used as positive drug control. The plates were incubated in a humidified incubator at 37° C. and 5% CO2. After 3 days of culture, the cytopathic effect was measured by counting the number of syncytia in each well under an inverted microscope. EC50 (50% Effective Concentration) was the compound concentration inhibiting 50% of syncytia formation. The cytopathic effect (CPE) inhibition %=(1-number of syncytiaexp/number of syncytiacontrol)×100.
# [1] = Cytotoxicity on C8166 cells (MTT colorimetric assay); details: human, read-out: CC50 (50% cytotoxic concentration)
# Method: as §1
# [2] = test system: binding and fusion between HIV-1 and cells; assay: microbe, parasite or virus in culture; details: C8166 + HIV-1 chronically infected H9 cells, 24 h, syncytia formation
# From the text: When HIV infected cells were co-cultured with normal T lymphocyte cells, the exterior envelope glycoprotein gp120 expressed on infected cells was bound to the cellular CD4 receptor of the uninfected CD4^+ cells, following fusion of cells and formation of syncytia. Compounds target to this site would inhibit the syncytia formation. Thus, this method could be used to detect whether the compounds have effect on binding and fusion between virus and host cell. Concentricolide A in example 1 was diluted by five fold on 96-well microtiter plate, 3 repeated wells in each gradient, 100 μl per well. Negative control well free of compounds and T-20 positive control well were set up. Then, 50 μl of C8166 cells at logarithmic growth period (6×10^5/ml) and 50 μl of HIV-1 chronically infected H9 cells (2×10^5/ml) were added in each well. The plate was cultured in a humidified incubator at 37° C. and 5% CO2 for 24 h, and the syncytial formation was observed under microscope to deduce whether Concentricolide A blocks the fusion process of virus and cell .
compound,measurement,setting,value
"Cc1cn([C@H]2C[C@H](N=[N+]=[N-])[C@@H](CO)O2)c(=O)[nH]c1=O [AZT, 3P-azido-3P-deoxythymidine, reference compound]",CC50 (50% cytotoxic concentration),C8166 cells,258.88 µg/mL
same,"EC50, inhibition of cytopathic effect (CPE) of HIV-1","HIV-1IIIB; C8166 cells, HIV-1IIIB M.O.I. 0.06, 3 days, syncytia count",0.092 µg/mL
CC[C@@H]1OC(=O)c2c1ccc1ccoc21 [concentricolide A],CC50 at 72 h,[1],76.7 µg/mL
same,EC50,"[2]; Human immunodeficiency virus 1, read-out: EC50, blockage of binding and fusion between HIV-1 and cells",0.83 µg/mL
same,EC50,"HIV-1IIIB; Human immunodeficiency virus 1, 72 h, C8166 cells, HIV-1IIIB M.O.I. 0.06, 3 days, syncytia count",0.31 µg/mL
same,selected index (S.I.),HIV-1IIIB; against HIV-1 in vitro,222
enfuvirtide,"EC50, blockage of fusion of HIV-1 infected cells",[2]; positive control,0.00602 µg/mL
